Our source for the melting point values is patent US6448205B1, “Substituted 2-phenylpyridine as herbicide” (BASF Aktiengesellschaft, priority 1996, dated 2002).

Broadly, the melting point is the temperature, or range, at which the solid turns liquid. Regarding `COc1cc(-c2ncc([S+](C)[O-])cc2Cl)c(F)cc1Cl` (stereo not shown) [No. 6, 3-Chloro-2-(4-chloro-2-fluoro-5-methoxyphenyl)-5-methylsulfinylpyridine], the melting point was determined as 118 °C.
